According to paper doi:10.1101/2023.10.20.563248v1 (biorxiv, 2023):

Tests used:
Conditions in all cases: 1 µM; inhibitor
ACVR1B = ACVR1B (Homo sapiens, UniProt P36896)
AKT1 = AKT1 (Homo sapiens, UniProt P31749)
AKT2 = AKT2 (Homo sapiens, UniProt P31751)
AKT3 = AKT3 (Homo sapiens, UniProt Q9Y243)
ARK5 = ARK5 (Homo sapiens, UniProt O60285)
BRSK1 = BRSK1 (Homo sapiens, UniProt Q8TDC3)
DAPK1 = DAPK1 (Homo sapiens, UniProt P53355)
DYRK2 = DYRK2 (Homo sapiens, UniProt Q92630)
EIF2AK2 = EIF2AK2 (Homo sapiens, UniProt P19525)
EPHA2 = EPHA2 (Homo sapiens, UniProt P29317)
ERK2 = ERK2 (Homo sapiens, UniProt P28482)
ERK7 = ERK7 (Homo sapiens, UniProt Q8TD08)
FGFR2 = FGFR2 (Homo sapiens, UniProt P21802)
FLT4 = FLT4 (Homo sapiens, UniProt P35916)
FYN = FYN (Homo sapiens, UniProt P06241)
GRK5 = GRK5 (Homo sapiens, UniProt P34947)
MEKK2 = MEKK2 (Homo sapiens, UniProt Q9Y2U5)
MTOR = MTOR (Homo sapiens, UniProt P42345)
MYLK2 = MYLK2 (Homo sapiens, UniProt Q9H1R3)
NIK = NIK (Homo sapiens, UniProt Q99558)
PKCa = PKCa (Homo sapiens, UniProt P17252)
PRKD2 = PRKD2 (Homo sapiens, UniProt Q9BZL6)
RPS6KB2 = RPS6KB2 (Homo sapiens, UniProt Q9UBS0)
SGK1 = SGK1 (Homo sapiens, UniProt O00141)
TNK1 = TNK1 (Homo sapiens, UniProt Q13470)
TRKA = TRKA (Homo sapiens, UniProt P04629)
TTBK2 = TTBK2 (Homo sapiens, UniProt Q6IQ55)
VEGFR2 = VEGFR2 (Homo sapiens, UniProt P35968)
YES = YES (Homo sapiens, UniProt P07947)
ZAP70 = ZAP70 (Homo sapiens, UniProt P43403)
p38b = p38b (Homo sapiens, UniProt Q15759)

NIK, sequence (Q99558 whole entry): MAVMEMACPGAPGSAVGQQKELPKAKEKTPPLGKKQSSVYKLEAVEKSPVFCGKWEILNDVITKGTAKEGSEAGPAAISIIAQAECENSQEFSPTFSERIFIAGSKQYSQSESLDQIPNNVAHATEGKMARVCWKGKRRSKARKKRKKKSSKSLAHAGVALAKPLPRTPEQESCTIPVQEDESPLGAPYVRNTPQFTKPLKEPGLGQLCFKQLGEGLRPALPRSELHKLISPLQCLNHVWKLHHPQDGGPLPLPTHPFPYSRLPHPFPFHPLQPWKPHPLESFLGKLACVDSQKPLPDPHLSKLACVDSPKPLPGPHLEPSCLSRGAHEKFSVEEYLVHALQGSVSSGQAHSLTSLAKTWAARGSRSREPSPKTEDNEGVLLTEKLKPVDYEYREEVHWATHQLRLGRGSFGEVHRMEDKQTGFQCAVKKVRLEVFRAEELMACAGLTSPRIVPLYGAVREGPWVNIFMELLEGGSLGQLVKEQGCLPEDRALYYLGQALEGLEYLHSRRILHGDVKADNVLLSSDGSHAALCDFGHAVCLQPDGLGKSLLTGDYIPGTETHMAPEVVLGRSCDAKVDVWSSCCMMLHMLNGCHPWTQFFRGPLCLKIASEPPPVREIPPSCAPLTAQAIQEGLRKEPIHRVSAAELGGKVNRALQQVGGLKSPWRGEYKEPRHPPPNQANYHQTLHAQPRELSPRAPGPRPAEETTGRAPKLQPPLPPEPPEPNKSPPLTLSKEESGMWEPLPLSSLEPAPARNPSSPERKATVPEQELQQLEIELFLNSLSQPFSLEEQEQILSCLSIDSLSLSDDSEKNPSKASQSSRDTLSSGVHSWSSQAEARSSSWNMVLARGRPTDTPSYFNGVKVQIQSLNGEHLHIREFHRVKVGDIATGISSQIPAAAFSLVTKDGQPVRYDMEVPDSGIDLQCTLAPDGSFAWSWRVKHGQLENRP
FLT4, sequence (P35916 whole entry): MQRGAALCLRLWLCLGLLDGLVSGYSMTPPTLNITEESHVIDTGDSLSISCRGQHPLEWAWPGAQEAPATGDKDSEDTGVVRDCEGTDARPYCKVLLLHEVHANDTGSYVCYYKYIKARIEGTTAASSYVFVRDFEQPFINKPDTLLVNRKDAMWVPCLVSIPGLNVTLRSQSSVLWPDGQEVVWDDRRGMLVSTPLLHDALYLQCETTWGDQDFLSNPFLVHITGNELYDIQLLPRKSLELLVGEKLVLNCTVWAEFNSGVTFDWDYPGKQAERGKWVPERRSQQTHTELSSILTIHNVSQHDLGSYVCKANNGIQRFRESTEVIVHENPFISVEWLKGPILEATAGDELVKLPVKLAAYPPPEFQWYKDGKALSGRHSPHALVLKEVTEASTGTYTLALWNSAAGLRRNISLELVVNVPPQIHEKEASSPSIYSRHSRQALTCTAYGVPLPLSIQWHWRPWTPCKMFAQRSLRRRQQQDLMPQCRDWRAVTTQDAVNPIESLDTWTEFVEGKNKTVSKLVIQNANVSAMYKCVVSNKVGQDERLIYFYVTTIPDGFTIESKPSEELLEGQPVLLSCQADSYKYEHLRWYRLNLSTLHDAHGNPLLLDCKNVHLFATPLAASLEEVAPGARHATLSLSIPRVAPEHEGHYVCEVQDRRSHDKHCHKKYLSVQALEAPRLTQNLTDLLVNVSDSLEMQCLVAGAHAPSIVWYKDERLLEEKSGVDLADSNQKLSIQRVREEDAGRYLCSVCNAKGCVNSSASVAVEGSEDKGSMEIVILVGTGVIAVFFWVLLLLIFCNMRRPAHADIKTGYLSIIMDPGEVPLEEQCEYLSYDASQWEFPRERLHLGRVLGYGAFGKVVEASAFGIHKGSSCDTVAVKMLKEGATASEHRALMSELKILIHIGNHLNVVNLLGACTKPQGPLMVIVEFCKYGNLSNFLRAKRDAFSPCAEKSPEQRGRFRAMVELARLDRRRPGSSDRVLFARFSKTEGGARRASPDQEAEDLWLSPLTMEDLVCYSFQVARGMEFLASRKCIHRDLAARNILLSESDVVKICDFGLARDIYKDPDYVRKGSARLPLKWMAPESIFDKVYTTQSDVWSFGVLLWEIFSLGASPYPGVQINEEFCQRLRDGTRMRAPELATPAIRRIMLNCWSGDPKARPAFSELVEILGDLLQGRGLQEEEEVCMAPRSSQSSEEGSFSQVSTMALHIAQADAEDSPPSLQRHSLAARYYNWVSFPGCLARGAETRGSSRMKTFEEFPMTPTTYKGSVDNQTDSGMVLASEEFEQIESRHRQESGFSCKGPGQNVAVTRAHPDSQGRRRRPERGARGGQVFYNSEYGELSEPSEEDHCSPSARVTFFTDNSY
TTBK2, sequence (Q6IQ55 whole entry): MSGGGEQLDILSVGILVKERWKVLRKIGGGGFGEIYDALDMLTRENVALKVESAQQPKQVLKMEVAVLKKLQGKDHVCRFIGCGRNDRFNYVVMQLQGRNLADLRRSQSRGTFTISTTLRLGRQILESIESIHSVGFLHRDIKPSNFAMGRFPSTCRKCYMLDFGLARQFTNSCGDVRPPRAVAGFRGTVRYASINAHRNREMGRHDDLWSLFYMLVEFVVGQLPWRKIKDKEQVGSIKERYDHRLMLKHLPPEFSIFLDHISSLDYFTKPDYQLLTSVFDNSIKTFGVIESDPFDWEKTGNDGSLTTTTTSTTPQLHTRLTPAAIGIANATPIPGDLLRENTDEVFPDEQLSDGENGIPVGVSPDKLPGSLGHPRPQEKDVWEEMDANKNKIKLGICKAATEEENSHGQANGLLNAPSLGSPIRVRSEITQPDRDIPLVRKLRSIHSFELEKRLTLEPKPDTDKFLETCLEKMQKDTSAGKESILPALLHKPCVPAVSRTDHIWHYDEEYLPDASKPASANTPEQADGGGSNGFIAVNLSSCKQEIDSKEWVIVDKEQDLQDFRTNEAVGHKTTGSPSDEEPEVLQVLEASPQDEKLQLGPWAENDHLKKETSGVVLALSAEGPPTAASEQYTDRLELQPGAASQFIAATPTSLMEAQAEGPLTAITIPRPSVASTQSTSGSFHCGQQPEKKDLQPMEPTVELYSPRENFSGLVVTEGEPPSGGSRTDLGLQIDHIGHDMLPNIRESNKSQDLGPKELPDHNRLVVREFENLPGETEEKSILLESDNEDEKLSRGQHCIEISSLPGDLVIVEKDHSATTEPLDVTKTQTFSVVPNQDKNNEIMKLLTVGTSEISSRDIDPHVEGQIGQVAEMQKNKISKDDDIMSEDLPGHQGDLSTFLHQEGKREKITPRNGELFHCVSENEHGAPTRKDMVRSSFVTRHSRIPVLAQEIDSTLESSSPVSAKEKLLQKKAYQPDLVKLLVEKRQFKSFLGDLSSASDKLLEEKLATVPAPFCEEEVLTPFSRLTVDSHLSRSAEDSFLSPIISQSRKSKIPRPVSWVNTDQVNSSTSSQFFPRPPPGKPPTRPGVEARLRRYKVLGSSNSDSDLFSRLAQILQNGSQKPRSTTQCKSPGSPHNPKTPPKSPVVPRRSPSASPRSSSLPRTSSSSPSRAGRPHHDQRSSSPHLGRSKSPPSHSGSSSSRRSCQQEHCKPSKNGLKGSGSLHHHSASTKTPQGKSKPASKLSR
YES, sequence (P07947 whole entry): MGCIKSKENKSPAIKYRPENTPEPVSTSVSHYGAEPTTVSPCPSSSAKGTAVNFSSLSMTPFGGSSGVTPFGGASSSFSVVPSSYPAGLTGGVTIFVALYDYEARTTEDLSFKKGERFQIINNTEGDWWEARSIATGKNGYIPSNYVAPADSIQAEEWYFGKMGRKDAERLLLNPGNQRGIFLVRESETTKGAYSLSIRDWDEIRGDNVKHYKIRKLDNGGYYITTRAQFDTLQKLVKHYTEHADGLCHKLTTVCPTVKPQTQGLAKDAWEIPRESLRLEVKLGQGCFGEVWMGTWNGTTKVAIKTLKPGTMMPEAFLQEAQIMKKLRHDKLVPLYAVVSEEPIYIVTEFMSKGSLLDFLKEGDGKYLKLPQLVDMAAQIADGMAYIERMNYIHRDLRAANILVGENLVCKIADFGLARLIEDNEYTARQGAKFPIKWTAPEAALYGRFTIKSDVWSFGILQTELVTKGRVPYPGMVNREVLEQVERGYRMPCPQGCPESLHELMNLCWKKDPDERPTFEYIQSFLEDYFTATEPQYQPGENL
TRKA, sequence (P04629 whole entry): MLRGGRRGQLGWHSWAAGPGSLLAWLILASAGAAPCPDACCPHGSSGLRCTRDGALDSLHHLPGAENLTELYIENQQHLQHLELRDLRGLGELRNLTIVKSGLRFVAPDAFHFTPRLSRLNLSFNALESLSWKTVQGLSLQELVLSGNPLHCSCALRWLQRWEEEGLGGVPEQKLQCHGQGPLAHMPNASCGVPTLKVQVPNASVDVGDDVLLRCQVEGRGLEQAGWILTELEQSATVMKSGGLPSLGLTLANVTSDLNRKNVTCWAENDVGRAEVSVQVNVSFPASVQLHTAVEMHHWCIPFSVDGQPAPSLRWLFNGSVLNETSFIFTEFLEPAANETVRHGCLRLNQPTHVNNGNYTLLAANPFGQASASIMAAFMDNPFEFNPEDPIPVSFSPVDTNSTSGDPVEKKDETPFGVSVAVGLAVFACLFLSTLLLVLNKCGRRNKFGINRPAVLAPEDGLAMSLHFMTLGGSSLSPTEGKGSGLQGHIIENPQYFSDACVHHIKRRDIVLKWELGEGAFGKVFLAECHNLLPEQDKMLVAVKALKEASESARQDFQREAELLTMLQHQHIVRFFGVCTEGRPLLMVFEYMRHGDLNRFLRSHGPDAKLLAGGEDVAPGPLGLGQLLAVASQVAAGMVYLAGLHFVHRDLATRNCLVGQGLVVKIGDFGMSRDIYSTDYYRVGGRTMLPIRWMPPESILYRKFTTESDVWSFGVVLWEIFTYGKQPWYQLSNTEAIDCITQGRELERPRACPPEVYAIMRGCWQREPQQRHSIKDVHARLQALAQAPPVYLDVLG

21c Remaining activity, percent of control [%] (ACVR1B): 85.2% | 21c Remaining activity, percent of control [%] (AKT1): 92.1% | 21c Remaining activity, percent of control [%] (AKT2): 90.3% | 21c Remaining activity, percent of control [%] (AKT3): 102.5% | 21c Remaining activity, percent of control [%] (ARK5): 86.3% | 21c Remaining activity, percent of control [%] (BRSK1): 112.9% | 21c Remaining activity, percent of control [%] (DAPK1): 94.0% | 21c Remaining activity, percent of control [%] (DYRK2): 91.4% | 21c Remaining activity, percent of control [%] (EIF2AK2): 75.1% | 21c Remaining activity, percent of control [%] (EPHA2): 82.5% | 21c Remaining activity, percent of control [%] (ERK2): 90.7% | 21c Remaining activity, percent of control [%] (FGFR2): 79.5% | 21c Remaining activity, percent of control [%] (FLT4): 93.9% | 21c Remaining activity, percent of control [%] (FYN): 56.6% | 21c Remaining activity, percent of control [%] (GRK5): 103.8% | 21c Remaining activity, percent of control [%] (MEKK2): 103.5% | 21c Remaining activity, percent of control [%] (MTOR): 99.2% | 21c Remaining activity, percent of control [%] (MYLK2): 79.0% | 21c Remaining activity, percent of control [%] (NIK): 68.5% | 21c Remaining activity, percent of control [%] (PKCa): 107.7% | 21c Remaining activity, percent of control [%] (PRKD2): 82.0% | 21c Remaining activity, percent of control [%] (RPS6KB2): 99.0% | 21c Remaining activity, percent of control [%] (SGK1): 90.0% | 21c Remaining activity, percent of control [%] (TNK1): 96.2% | 21c Remaining activity, percent of control [%] (TRKA): 90.8% | 21c Remaining activity, percent of control [%] (TTBK2): 109.9% | 21c Remaining activity, percent of control [%] (VEGFR2): 90.3% | 21c Remaining activity, percent of control [%] (YES): 81.2% | 21c Remaining activity, percent of control [%] (ZAP70): 108.6% | 21c Remaining activity, percent of control [%] (p38b): 92.9%
SMILES: O=C1NCCCCCNc2nc(c3ccccc3n2)Nc2cc1[nH]n2 [21c, (Z)-3^1H-2,5,11-triaza-1(4,2)-quinazolina-3(3,5)-pyrazolacycloundecaphan-4-one]
21c Remaining activity, percent of control [%] (ERK7): 90.2%
